Experimental data as given in ChEMBL document CHEMBL1140941 (J Med Chem, 2009).
The source made the active and inactive calls. The calls are words filed in the database; no cut-off is given here.

How the values were obtained:
[1] = Half life in CD rat at 3 mg/kg, iv; format: ADME, organism-based; set-up: dose 3 mg/kg, route intravenous; settings: in vivo
[2] = AUC (0 to t) in CD rat at 3 mg/kg, po; format: ADME, organism-based; set-up: dose 3 mg/kg, route oral; settings: plasma
[3] = target: T1, Peroxisome proliferator-activated receptor delta (Homo sapiens) (UniProt Q03181); test: Agonist activity at PPARdelta expressed in african green monkey CV1 cells co-expressing MH100 up to 10 uM by luciferase reporter gene assay relative to control; format: functional, cell-based; settings: CV-1
T1 sequence (whole entry): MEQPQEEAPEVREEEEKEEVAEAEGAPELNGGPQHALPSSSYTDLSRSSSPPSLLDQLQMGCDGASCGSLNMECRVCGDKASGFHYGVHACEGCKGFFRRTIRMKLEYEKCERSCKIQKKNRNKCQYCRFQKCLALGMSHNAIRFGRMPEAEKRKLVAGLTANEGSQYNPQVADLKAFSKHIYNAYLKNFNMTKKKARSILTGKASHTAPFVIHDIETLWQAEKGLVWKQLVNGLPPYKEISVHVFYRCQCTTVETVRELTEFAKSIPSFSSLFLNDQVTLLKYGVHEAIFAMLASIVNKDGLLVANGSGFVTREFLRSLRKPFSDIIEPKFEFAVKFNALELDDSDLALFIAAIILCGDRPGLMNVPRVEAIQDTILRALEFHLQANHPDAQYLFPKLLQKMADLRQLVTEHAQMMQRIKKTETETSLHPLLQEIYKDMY

[4] = target: T2, Progesterone receptor (Homo sapiens) (UniProt P06401); test: Antagonist activity at gal-PR expressed in african green monkey CV1 cells co-expressing MH100 at 10 uM by luciferase reporter gene assay; format: functional, cell-based; settings: CV-1
T2 sequence (whole entry): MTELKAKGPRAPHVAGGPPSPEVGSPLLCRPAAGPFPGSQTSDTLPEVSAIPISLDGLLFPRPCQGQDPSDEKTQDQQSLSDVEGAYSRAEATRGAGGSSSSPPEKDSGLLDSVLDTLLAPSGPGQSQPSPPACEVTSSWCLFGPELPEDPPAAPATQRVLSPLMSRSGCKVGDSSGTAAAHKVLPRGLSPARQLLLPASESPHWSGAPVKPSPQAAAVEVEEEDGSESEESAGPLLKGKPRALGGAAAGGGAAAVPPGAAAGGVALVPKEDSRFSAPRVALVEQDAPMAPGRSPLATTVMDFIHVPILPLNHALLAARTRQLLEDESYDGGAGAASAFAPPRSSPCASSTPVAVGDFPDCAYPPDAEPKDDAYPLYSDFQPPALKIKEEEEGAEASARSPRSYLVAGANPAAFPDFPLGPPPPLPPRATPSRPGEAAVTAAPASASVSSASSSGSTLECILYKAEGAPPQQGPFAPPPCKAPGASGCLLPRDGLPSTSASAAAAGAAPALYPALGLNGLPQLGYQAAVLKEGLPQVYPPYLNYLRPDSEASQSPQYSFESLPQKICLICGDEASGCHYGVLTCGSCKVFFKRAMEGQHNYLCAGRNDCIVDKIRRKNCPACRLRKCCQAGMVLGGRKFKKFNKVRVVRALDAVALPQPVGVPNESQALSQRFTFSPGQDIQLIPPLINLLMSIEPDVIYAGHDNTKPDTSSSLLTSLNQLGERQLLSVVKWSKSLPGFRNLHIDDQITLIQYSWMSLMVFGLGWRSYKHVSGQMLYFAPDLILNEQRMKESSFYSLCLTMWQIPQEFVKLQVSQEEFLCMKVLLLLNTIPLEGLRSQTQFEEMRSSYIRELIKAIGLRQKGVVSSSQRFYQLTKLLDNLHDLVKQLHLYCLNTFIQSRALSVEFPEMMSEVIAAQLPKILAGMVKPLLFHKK

[5] = target: Vitamin D3 receptor (Homo sapiens) (UniProt P11473); test: Agonist activity at VP16-VDR expressed in african green monkey CV1 cells co-expressing MH100 by luciferase reporter gene assay; format: functional, cell-based; settings: CV-1
Sequence of Vitamin D3 receptor (Homo sapiens) (P11473 whole entry): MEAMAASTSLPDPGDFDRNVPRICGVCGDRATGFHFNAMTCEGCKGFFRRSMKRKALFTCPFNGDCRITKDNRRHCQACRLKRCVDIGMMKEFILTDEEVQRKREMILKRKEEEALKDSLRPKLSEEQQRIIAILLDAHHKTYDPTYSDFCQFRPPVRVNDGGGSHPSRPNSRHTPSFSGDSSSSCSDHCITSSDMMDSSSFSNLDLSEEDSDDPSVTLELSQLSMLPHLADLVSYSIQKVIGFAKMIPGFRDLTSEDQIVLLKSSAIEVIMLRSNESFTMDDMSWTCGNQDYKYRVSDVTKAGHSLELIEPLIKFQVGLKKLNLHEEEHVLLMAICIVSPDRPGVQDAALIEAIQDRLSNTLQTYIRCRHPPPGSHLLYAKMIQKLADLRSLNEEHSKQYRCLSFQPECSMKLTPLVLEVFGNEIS

[6] = target: T3, Androgen receptor (Homo sapiens) (UniProt P10275); test: Antagonist activity at gal-AR expressed in african green monkey CV1 cells co-expressing MH100 with GRIP1 co-factor at 10 uM by luciferase reporter gene assay; format: functional, cell-based; settings: CV-1
T3 sequence (whole entry): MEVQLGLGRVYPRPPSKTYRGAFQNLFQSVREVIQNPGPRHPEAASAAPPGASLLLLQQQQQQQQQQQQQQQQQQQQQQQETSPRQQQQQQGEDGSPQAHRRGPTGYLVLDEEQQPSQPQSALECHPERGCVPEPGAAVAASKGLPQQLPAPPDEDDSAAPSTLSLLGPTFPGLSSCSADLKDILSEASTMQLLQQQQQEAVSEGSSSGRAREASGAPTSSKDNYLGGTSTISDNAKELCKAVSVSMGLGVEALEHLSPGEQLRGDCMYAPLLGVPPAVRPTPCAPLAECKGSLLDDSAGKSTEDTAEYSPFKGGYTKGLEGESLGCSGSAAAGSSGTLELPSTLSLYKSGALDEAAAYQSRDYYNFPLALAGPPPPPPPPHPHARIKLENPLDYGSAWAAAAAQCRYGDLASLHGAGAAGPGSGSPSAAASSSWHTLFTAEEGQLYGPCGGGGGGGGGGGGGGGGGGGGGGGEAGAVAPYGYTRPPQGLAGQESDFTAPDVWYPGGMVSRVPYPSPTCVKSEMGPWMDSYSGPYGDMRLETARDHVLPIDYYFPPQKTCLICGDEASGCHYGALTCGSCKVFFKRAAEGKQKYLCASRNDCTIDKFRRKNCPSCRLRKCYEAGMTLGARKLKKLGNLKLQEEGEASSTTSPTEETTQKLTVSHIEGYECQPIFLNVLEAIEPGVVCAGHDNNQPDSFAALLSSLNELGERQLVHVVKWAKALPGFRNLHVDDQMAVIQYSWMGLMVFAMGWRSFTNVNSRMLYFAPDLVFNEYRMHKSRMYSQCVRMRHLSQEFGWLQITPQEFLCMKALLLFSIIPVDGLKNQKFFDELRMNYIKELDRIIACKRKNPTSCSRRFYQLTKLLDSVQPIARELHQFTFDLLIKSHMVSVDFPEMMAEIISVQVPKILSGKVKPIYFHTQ

[7] = target: Oxysterols receptor LXR-beta (Homo sapiens) (UniProt P55055); test: Agonist activity at LXRbeta expressed in african green monkey CV1 cells co-expressing LXRE up to 10 uM by luciferase reporter gene assay relative to control; format: functional, cell-based; settings: CV-1
Sequence of Oxysterols receptor LXR-beta (Homo sapiens) (P55055 whole entry): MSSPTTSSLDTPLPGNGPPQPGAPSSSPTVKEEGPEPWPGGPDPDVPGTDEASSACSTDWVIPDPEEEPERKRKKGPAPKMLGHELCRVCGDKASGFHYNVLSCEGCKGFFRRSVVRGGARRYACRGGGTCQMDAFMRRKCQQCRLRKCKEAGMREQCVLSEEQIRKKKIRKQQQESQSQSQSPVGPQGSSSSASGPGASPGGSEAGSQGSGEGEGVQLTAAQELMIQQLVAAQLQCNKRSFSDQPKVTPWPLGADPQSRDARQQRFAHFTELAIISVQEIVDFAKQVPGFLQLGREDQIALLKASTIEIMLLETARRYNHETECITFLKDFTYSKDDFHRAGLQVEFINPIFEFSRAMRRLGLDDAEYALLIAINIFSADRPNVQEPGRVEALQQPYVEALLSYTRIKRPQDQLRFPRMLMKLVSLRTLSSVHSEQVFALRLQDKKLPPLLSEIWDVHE

[8] = target: T3, Androgen receptor (Homo sapiens); test: Agonist activity at human gal-AR expressed in african green monkey CV1 cells co-expressing MH100 with pGRIP1 co-factor by luciferase reporter gene assay; format: functional, cell-based; settings: CV-1
[9] = tested on: Mus musculus; test: Reduction of plasma triglyceride level in western diet-induced hyperlipidemia LDLR knockout mouse model at 3 mg/kg, po administered for 6 weeks; format: functional; set-up: scale not given: the % may be the effect or the level left
[10] = target: T2, Progesterone receptor (Homo sapiens); test: Agonist activity at gal-PR expressed in african green monkey CV1 cells co-expressing MH100 up to 10 uM by luciferase reporter gene assay relative to control; format: functional, cell-based; settings: CV-1
[11] = tested on: Mus musculus; test: Inhibition of preatherosclerotic lesion in LDLR knockout mouse model at 1 mg/kg, po administered for 6 weeks by en-face analysis; format: functional; set-up: scale not given: the % may be the effect or the level left

With `CC(C)OC(=O)C1=CN(C(=O)c2ccc(F)c(F)c2)CC(C)(C)c2c1[nH]c1ccccc21` [TUROFEXORATE ISOPROPYL] the half-life [1] was 2410 min, the AUC(0-t) [2] was 7 µM·h and the Activity [3] was “inactive”. The inhibition [4] was 14%, the Activity [5] was “inactive” and the inhibition [6] was 26%. For the same compound, the Activity [7] was “inactive”, the Activity [8] was “inactive” and the Activity [9] was 39%. The Activity [10] was “inactive” and the Activity [11] was 18%.
